Measured values published in US9770462B2, “Method of treating ovarian, tubal and peritoneal cancer” (NATIONAL CHENG KUNG UNIVERSITY, priority 2015, dated 2017).

Columns and labels:
[1] = test system: cDDP^R cell lines (2008-cp, A172-cp and SR2) and cDDP^S cell lines (2008, A172 and SCLC); experiment: Sensitization to platinum drugs in the absence or presence of copper chelator; format: cell-based, human; conditions: copper chelator treated cDDP^R cells with enhanced hCtr1 expression
Method: Furthermore, ^64Cu uptake and platinum (Pt) uptake, and sensitization to cisplatin and carboplatin in three pairs of cDDP^R cell lines (2008-cp, A172-cp and SR2) and cDDP^S cell lines (2008, A172 and SCLC) in the absence or presence of copper chelator (5 μmol/L of TM, 100 μmol/L of trientine or 100 μmol/L of D-pen) were evaluated.

[2] = test system: ovarian cancer cells; experiment: Cisplatin cytotoxicity (IC50) in the presence or absence of copper histidine; format: cell-based; conditions: copper ions 3000 μM, 24 hours
Method: The cytotoxicity of shControl cells (shControl), IMP3 knockdown cells (shIMP3-268, shIMP3-596) and Lin28B knockdown cells (shLin28B-860, shLin28B-508) in response to cisplatin was determined using the WST-1 (TaKaRa) assay. In brief, 3×10^4 ovarian cancer cells/well were grown in 96-well plates overnight and treated with cisplatin at various concentrations in the presence or absence of copper ions (3000 μM) (Copper Histidine) for 24 hours. After incubation, the […] was used to determine the IC50 of cisplatin. Dose-inhibition curves and the IC50 of cisplatin were calculated for the different cell types using commercial software (SigmaPlot V10.0, Systat Software, Inc., Richmond, Calif., USA). A copper histidine solution was prepared. In brief, copper(II) chloride (0.106 g; Sigma-Aldrich) and L-histidine (0.244 g; Sigma-Aldrich) were dissolved in 90 ml of sterile 0.9% sodium chloride, titrated to a pH of […] to 7.40, and then filtered through a 0.22-μm filter before use.

Row | SMILES | sensitivity of cells to the platinum drug [1] | IC50 of cisplatin when combined with copper histidine ([2]; IMP3- or Lin28B-knockdown cells, p<0.05) | IC50 of cisplatin when combined with copper histidine ([2]; shControl cells)
1 | N.N.O=C([O-])C1(C(=O)[O-])CCC1.[Pt+2] [carboplatin] | increased sensitivity |  | 
2 | N.N.[Cl][Pt][Cl] [cisplatin] | higher increases |  | 
3 | N[C@@H](Cc1c[nH]cn1)C(=O)O.[Cu] [copper histidine] |  | increased | no significant (NS) effect
4 | O=C1[O][Pt]2([NH][C@@H]3CCCC[C@H]3[NH]2)[O]C1=O [oxaliplatin] | not |  | 
